Measured values taken from ChEMBL document CHEMBL5120877, “Silybins are stereospecific regulators of the 20S proteasome” (Bioorg Med Chem, 2022).
Calls of active or inactive are those of the source.

Columns and labels:
Conditions in all cases: filed as activator, time 90.0 min
[1] = system: Saccharomyces cerevisiae; experiment: Activation of chymotrypsin-like activity of yeast 20s proteasome using suc-LLVY-AMC as flurogenic substrate preincubated for 30 mins followed by substrate addition and measured after 1 hr by fluorescence assay
[2] = system: Saccharomyces cerevisiae; experiment: Activation of trypsin-like activity of yeast 20s proteasome using […] as flurogenic substrate preincubated for 30 mins followed by substrate addition and measured after 1 hr by fluorescence assay
[3] = system: Saccharomyces cerevisiae; experiment: Activation of PGPHL-peptidase activity of yeast 20s proteasome using […] as flurogenic substrate preincubated for 30 mins followed by substrate addition and measured after 1 hr by fluorescence assay

Measured: Activity

COc1cc([C@H]2Oc3cc([C@H]4Oc5cc(O)cc(O)c5C(=O)[C@@H]4O)ccc3O[C@@H]2CO)ccc1O
active: all assays above

COc1cc([C@@H]2Oc3cc([C@H]4Oc5cc(O)cc(O)c5C(=O)[C@@H]4O)ccc3O[C@H]2CO)ccc1O
active: all assays above
